Assay results taken from US9751853B2, “Solid forms of 3-(5-amino-2-methyl-4-oxo-4H-quinazolin-3-yl)-piperidine-2,6-dione, and their pharmaceutical compositions and uses” (Celgene Corporation, priority 2011, dated 2017).

What was measured:
[1] = Dynamic Vapor Sorption (moisture sorption); assay type: physicochemical; conditions: 95% RH, room temperature
Method: Dynamic Vapor Sorption (DVS): Hygroscopicity was determined on a Surface Measurement Systems DVS. Typically, a sample of about 2-10 mg was loaded into the DVS instrument sample pan. The sample was analyzed on a DVS automated sorption analyzer at room temperature. The relative humidity was increased from 0 to 95% RH at 10% RH step, then at 95% RH. The relative humidity was then decreased in a similar manner to accomplish a full adsorption/desorption cycle.

[2] = Grinding studies, solid form by XRPD; assay type: physicochemical
Method: Grinding Studies: Grinding experiments were performed using a Wig-L-Bug shaker. About 50 mg of Compound A hydrochloride was added to a polystyrene tube (1″×½″) with a Plexi bead (⅜″). The vial was capped and placed on the shaker for about 50 s. For wet grinding, drops of water were added to the vial and a wet paste was formed prior to placing on the shaker.
X-ray Powder Diffraction (XRPD): XRPD analysis was conducted on a Thermo ARL X'TRA™ X-ray powder diffractometer using Cu Kα radiation at 1.54 Å. The instrument was equipped with a fine focus X-ray tube. The voltage and amperage of X-ray generator were set at 45 kV and 40 mA, respectively. The divergence slices were set at 4 mm and 2 mm and the measuring slices were set at 0.5 mm and 0.2 mm. Diffracted radiation was detected by a peltier-cooled Si(Li) solid-state detector. A theta-two theta continuous scan at 2.40°/min (0.5 sec/0.02° step) from 1.5°2θ to 40°2θ was used. A sintered alumina standard was used to check the peak position. In general, positions of XRPD peaks are expected to individually vary on a measurement-by-measurement basis by about +0.2°2θ. In general, as understood in the art, two XRPD patterns match one another if the characteristic peaks of the first pattern are located at approximately the same positions as the characteristic peaks of the second pattern. As understood in the art, determining whether two XRPD patterns match or whether individual peaks in two XRPD patterns match may require consideration of individual variables and parameters such as, but not limited to, preferred orientation, phase impurities, degree of crystallinity, particle size, variation in diffractometer instrument setup, variation in XRPD data collection parameters, and/or variation in XRPD data processing, among others. The determination of whether two patterns match may be performed by eye and/or by computer analysis.

Cc1nc2cccc(N)c2c(=O)n1C1CCC(=O)NC1=O (stereo not shown) [Form E, 3-(5-amino-2-methyl-4-oxo-4H-quinazolin-3-yl)-piperidine-2,6-dione]
Moisture Sorption at 95% RH ([1]; listed as E): 0.26 wt %

Cc1nc2cccc(N)c2c(=O)n1C1CCC(=O)NC1=O (stereo not shown) [Compound A, 3-(5-amino-2-methyl-4-oxo-4H-quinazolin-3-yl)-piperidine-2,6-dione]
Moisture Sorption at 95% RH [1]: 3.19 wt %

Cc1nc2cccc(N)c2c(=O)n1C1CCC(=O)NC1=O (stereo not shown) [Form A, 3-(5-amino-2-methyl-4-oxo-4H-quinazolin-3-yl)-piperidine-2,6-dione]
XRPD Result after grinding ([2]; Dry grinding): Form A1 | XRPD Result after grinding ([2]; Wet grinding (paste)): Form A1

Cc1nc2cccc(N)c2c(=O)n1C1CCC(=O)NC1=O (stereo not shown) [Form C, 3-(5-amino-2-methyl-4-oxo-4H-quinazolin-3-yl)-piperidine-2,6-dione]
Moisture Sorption at 95% RH ([1]; listed as C): 0.17 wt %

Cc1nc2cccc(N)c2c(=O)n1C1CCC(=O)NC1=O (stereo not shown) [Form D, 3-(5-amino-2-methyl-4-oxo-4H-quinazolin-3-yl)-piperidine-2,6-dione]
Moisture Sorption at 95% RH ([1]; listed as D): 4.11 wt %

Cc1nc2cccc(N)c2c(=O)n1C1CCC(=O)NC1=O (stereo not shown) [Form B, 3-(5-amino-2-methyl-4-oxo-4H-quinazolin-3-yl)-piperidine-2,6-dione]
Moisture Sorption at 95% RH ([1]; listed as B): 0.11 wt %
